From patent US20230044958A1, “METHOD OF TREATING VIRUS INFECTION USING A TLR7 AGONIST” (Hoffmann-La Roche Inc., priority 2019, published 2023)

Experiments:
[1] = Safety and tolerability of Compound (I) in chronic hepatitis B patients; assay type: in vivo, human
From the text: (§1) In this invention, methods of the entire treatment comprising Compound (I) monotherapy or Compound (I) in combination with other anti-HBV drug(s) for 24-120 weeks were developed.

HBV [2] = test: Treatment of HBV-infected patients with Compound (I), alone or in combination; assay type: in vivo, human
From the text: as §1
Furthermore, treatment method of Compound (I) in combination with other anti-HBV drugs results in significant hepatitis B surface antigen (HBsAg) decline or loss. […] However, the method of treatment of this invention with Compound (I) can also induce robust HBV DNA and HBV RNA decline in such patients.

HBV [3] = details: cited from earlier work
[4] = patients under the treatment methods of the invention

Row | SMILES | safety and tolerability [1] | hepatitis B surface antigen (HBsAg) decline or loss (HBV [2]; Compound (I) in combination with other anti-HBV drugs) | HBV DNA decline (HBV [2]; [4]) | HBV RNA decline (HBV [2]; [4]) | HBsAg decline (HBV [3]; weekly dosing for 4, 8, 12 weeks, virally suppressed patients with chronic hepatitis B) | change in HBsAg after treatment (HBV [3]; weekly dosing for 12 weeks in combination with tenofovir disoproxil fumarate, viremic CHB patients not on oral antiviral treatment)
1 | CC[C@H](OC(C)=O)[C@@H]1C[C@@H](O)[C@H](n2c(=O)sc3cnc(N)nc32)O1 [Compound (I), (1S)-1-[(2S,4R,5R)-5-(5-amino-2-oxo-thiazolo[4,5-d]pyrimidin-3-yl)-4-hydroxy-tetrahydrofuran-2-yl]propyl] acetate] | safe and well tolerated | significant | robust | robust |  | 
2 | CCCCOc1nc(N)c2c(n1)N(Cc1cccc(CN3CCCC3)c1)CC(=O)N2 [Vesatolimod] |  |  |  |  | did not show HBsAg decline | did not demonstrate any meaningful change in HBsAg
